Laboratory results: patent US6413967B1, “Inhibition of novel calcium entry pathway in electrically non-excitable cells acting as an anti-proliferative therapy” (The University of Virginia Patents Foundation, priority 1995, dated 2002)

System: VG Ca^2+ current in Jurkat cells
Assay: perforated patch clamp, voltage gated (VG) Ca2+ current
Type: cell-based, human
Conditions: Homo sapiens, 10 μM NDGA
Method: All recordings were performed using the perforated patch method (Horn et al, J. Gen. Physiol. (1988) 92:145) of the gigaseal patch clamp technique (Hammil et al, Pflugers Arch (1981) 391:85) with microelectrodes of 5-10 megohm series resistance. In all solutions for voltage clamp, K^+ was replaced with Cs^+ to block outward K^+ currents (Fox et al, J. Physiol. (Lond.) (1987) 392:149). The bath solution contained (in mM): NaCl, 155; CsCl, 4.5; CaCl2, 2; MgCl2, 1; D-glucose, 5; HEPES, 10 (pH 7.4 with NaOH). The pipette solution contained (in mM): CsCl, 55; Cesium methanesulfonate, 70; CaCl2, 1; MgCl2, 7; HEPES, 10 (pH 7.3 with NaOH). Nystatin was made as a stock solution of 6 mg/100 μl DMSO, and 2 μl of the stock was added to 1 ml of the pipette solution for use. Both pipette and bath solutions were 290-300 mOsm. Experiments were performed on cells at room temperature using the Axopatch-1D patch clamp (Axon Instruments, Foster City, Calif.) after correction of junction potentials and leak subtraction. Records were low-pass filtered at 500 Hz, and the data were collected, stored and analyzed using the pClamp software program (Axon Instruments). For the non-voltage gated current traces, data is presented either as the tracing from a chart recorder or from the digital data in which the current was measured at 5 second intervals and plotted as individual points.

Q: For `CC(Cc1ccc(O)c(O)c1)C(C)Cc1ccc(O)c(O)c1` (stereo not shown) [NDGA, 4,4′-(2,3-dimethyl-1,4-butanediyl)bis[1,2-benzenediol]], which inhibition at 10 µM is on record?
A: ~70%
